Results reported in PMC5606850, “Acidic C-terminal domains autoregulate the RNA chaperone Hfq” (eLife, 2017).

Assays:
Target-A18 = assay: RNA annealing kinetics (molecular beacon with Target-A18), stopped-flow fluorescence; format: biochemical; conditions: 50 nM molecular beacon, 100 nM Target-A18, 0–200 nM Hfq hexamer, 30 °C
Procedure: Figure 4. Shortening the CTD increases auto-inhibition by acidic residues. (A) Observed annealing rate constants for 100 nM target RNA and 50 nM molecular beacon with 0–200 nM Hfq hexamer at 30°C, measured by stopped-flow fluorescence. Black, Hfq102; red, Hfq-sCTD; cyan, Hfq65. (B) Fluorescence anisotropy assay for RNA binding and release. In stopped-flow FRET experiments, the dsRNA is released after pairing with its complementary strand ([Panja et al., 2013]; [Santiago-Frangos et al., 2016]). […] Remaining RNA was displaced from Hfq by excess ssDNA (400 nM DNA2). The averages and standard deviations for three trials are plotted for each Hfq variant. […] (D) Annealing of 5 nM ^32P-ChiX sRNA with 30 nM chiP mRNA without Hfq, or with Hfq65, Hfq102 or Hfq-sCTD, as indicated above each lane. Samples were loaded on a native polyacrylamide gel 60 min or 20 s after the components were mixed. […] (E) Fractions of free ChiX (black), ChiX·chiP dsRNA (light grey), ChiX·Hfq·chiP ternary complex (hatched) and ChiX·Hfq binary complex (dark grey) after 4 min of annealing, as analyzed by EMSA (Figure 4—figure supplement 2). […] Annealing of 100 nM Target RNA to 50 nM beacon RNA by Hfq variants was measured by stopped flow fluorescence at 30°C in 1 × TNK buffer. […] The change in fluorescence emission intensity was normalized to the maximum fluorescence within an experiment. […]

[1] = SDS-PAGE oligomerization of purified Hfq variants; format: physicochemical, E. coli; conditions: 4–20% SDS-PAGE, ~2.8 µg protein, 2% SDS, boiled
Procedure: Figure 2. CTD and RNA occupy the same rim binding site. […] The CTD linker is shown in purple, the acidic tip in red and the N-terminal FITC as a yellow star. Hfq core is shown in cyan, with basic rim patches in dark blue. […] (C) Reaction scheme for annealing an RNA molecular beacon to a target RNA (open bar) ([Hopkins et al., 2011]; [Panja et al., 2015]). (D) Progress curves for annealing 50 nM molecular beacon and 100 nM Target by 50 nM Hfq65 hexamer at 30°C, measured by stopped-flow fluorescence. See Figure 2—figure supplement 3 for further data. (E) Contribution of core residues to CTD binding. Interaction energy (Expected Energetic Contribution; EEC) in silico for a core residue in the Rosetta models (solid symbols and solid line; adjusted R^2 = 0.77) or the average annealing rates for Target and Target-A18 relative to Hfq65 (open symbols and dashed line; adjusted R^2 = 0.94) versus experimental CTD binding energy (∆∆G°) for each Hfq65 variant. The binding energy, ∆∆G° = –RTln(Kd^MUT/Kd), reflects the perturbation to CTD binding by a mutation in Hfq65. The interaction energy in silico or EEC is defined as the average energy of a tail–core interaction multiplied by the average number of tail–core interactions per model (Figure 1B, top and Equation 3). The relative annealing rate for Hfq65 variants, krel = kobs^MUT/kobs^WT, is <1 if the mutated residue is important for RNA annealing. Figure 2—figure supplement 1. SDS-PAGE of purified Hfq variants. WT Hfq assembles into hexamers and dodecamers that are stable to SDS-PAGE, which can be used to evaluate the oligomerization of Hfq variants. Purified Hfq protein (~2.8 µg) was separated on a 4–20% SDS-PAGE gel and stained with Coomassie blue (lanes 2–6). Samples were prepared in 2% SDS and boiled before loading. Lane 1, Protein standards (10 µL All Blue Precision Plus, […]). […] Annealing of 100 nM Target RNA to 50 nM beacon RNA by Hfq65 and Hfq65 variants was measured by stopped flow fluorescence at 30°C in 1 × TNK buffer. […] The change in fluorescence emission intensity was normalized to the maximum fluorescence within an experiment. […]

Row | Substance | annealing acceleration for Target-A18 compared to no Hfq (Target-A18) | oligomeric state on SDS-PAGE [1]
1 | Hfq65: truncated E. coli Hfq variant lacking the CTD | roughly 100 fold | form hexamers with slightly different stabilities
2 | Hfq102: full-length E. coli Hfq | roughly 100 fold | migrates as a dodecamer (red dot) and monomer (green dot) with no visible hexamer band
